Measured values reported in article PMC4748415, “Impact of different cell penetrating peptides on the efficacy of antisense therapeutics for targeting intracellular pathogens” (Scientific Reports, 2016).
Values after ≈ are worked out from the molar mass of the structure shown. Values joined by “and” are separate entries in the source; they are usually repeats but may differ in a detail not shown here. Identical values can stand only once. “Also recorded” adds a separate entry of the source. Like-named read-outs stand apart in the source and are kept apart here. Marks after values point to notes of the source that are not given here. Peptide text beside a SMILES is read from it.

Key:
[1] = test system: L. monocytogenes J0161 in infected C. elegans; experiment: C. elegans infection model; details: 18 hours treatment; for Log CFUs/worm: 10 worms in triplicates; for Log CFUs reduction: versus water
Description: To test the efficacy of PNA in vivo we used Listeria-infected C. elegans. The temperature-sensitive sterile mutant strain C. elegans AU37 [sek-1(km4); glp-4(bn2) I] was used for this study. This strain is sterile at room temperature and can lay eggs only at 15 °C. Furthermore, mutation in the sek-1 gene of the p38 mitogen-activated protein kinase pathway (p38 MAPK pathway), makes this particular C. elegans strain more susceptible to Listeria infection[49][56]. Initially, the pathogenicity of three strains of Listeria (F4244, J0161 and ATCC19111) was tested in C. elegans as described before[24] to determine the most virulent strain to use for this study. […] Briefly, adult worms were grown for 5 days, at 15 °C (temperature that permits worms to lay eggs) on NGM agar plates seeded with a lawn of E. coli OP50. The eggs were harvested by bleaching[57] and maintained for 24 hours at room temperature with gentle agitation for hatching. Hatched larvae were transferred to a new NGM plate seeded with E. coli OP50 and were kept at room temperature for five days until worms reached the adult stage of growth. Adult worms were collected and washed three times with M9 media in a 1:10 ratio to remove E. coli before transfer to LB agar plates seeded with a lawn of L. monocytogenes J0161 for infection. After eight hours of infection, worms were collected and washed with M9 buffer five times before incubation with PNAs. Worms were transferred to low-binding microcentrifuge tubes (10 worms per tube). […] After treatment for 18 hours, worms were washed five times with M9 buffer. […] Samples were serially diluted and plated onto TSA plates containing 5 μg/ml nalidixic acid to select for Listeria.

[2] = test system: clinical isolates of L. monocytogenes; type: cell-based, Listeria monocytogenes
Description: (§1) The MICs of conjugated PNAs, free PNA, CPPs and untreated control against L. monocytogenes were determined using the broth microdilution method according to the Clinical and Laboratory Standards Institute (CLSI) guidelines with the following modifications. Briefly, low binding clear microcentrifuge tubes (USA scientific, Inc. Ocala, FL) were used in triplicates for each reaction instead of traditional 96-well plates. […] After a 16 hour incubation period (of test agent with bacteria), the number of viable bacteria was enumerated by serial dilution and counting on TSA plates. The MICs were repeated at least twice.

[3] = test system: mitochondrial biogenesis in J774A.1 cells; experiment: Mitobiogenesis assay (In-Cell ELISA, COX-I/SDH-A); details: three days, tested at 0.1, 1, 10 and 20 μM, COX-I/SDH-A ratio
Description: To measure the effect of PNA on the mitochondrial biogenesis, In-Cell ELISA Kit (MitoSciences Inc., Eugene, OR, USA) was used as per the manufacturer’s instructions[54][55]. Briefly, J774A.1 cells were seeded (approximately 40,000 cells per well) in 96-well plates and allowed to adhere. […] Cells were allowed to grow for approximately 3 days. Media were removed and cells were washed with PBS, then fixed with 4% paraformaldehyde. After fixing, cells were washed with PBS and permeabilization and blocking processes were done according to the manufacturer’s instructions. Primary antibodies to detect the levels of two proteins (subunit I of Complex IV (COX-I), that is mitochondrial DNA (mtDNA)-encoded), and the 70 kDa subunit of Complex II (SDH-A), a nuclear DNA (nDNA)-encoded were added and incubated for overnight at 4 °C. After incubation, cells were washed with PBS and secondary antibodies were added and incubated at room temperature for one hour. After washing, the expression of SDH-A and COX-1 were measured at 405 nm and 600 nm wavelength, respectively. The ratio between COX-I and SDH-A was calculated and the percent of inhibition of mitochondrial biogenesis was determined.

[4] = test system: L. monocytogenes F4244; experiment: Concentration-dependent bacterial log reduction in pure culture; type: cell-based, Listeria monocytogenes; details: for Log CFU/ml: pure culture F4244, 16 hour incubation; for Log CFU reduction: relative to control, pure culture F4244
Description: as §1

[5] = test system: L. monocytogenes F4244 inside infected J774A.1 cells; type: cell-based; details: 4 hours; for Log CFU/ml: intracellular F4244 in J774A.1; for Log CFU reduction: intracellular F4244 in J774A.1, versus control
[6] = test system: L. monocytogenes F4244; experiment: Time kill assay; type: cell-based, Listeria monocytogenes; details: 12 hours; for bactericidal or bacteriostatic activity: L. monocytogenes, time kill at 32 μM; for time to complete eradication of Listeria: 32 μM PNA, 37 °C, samples every 2 hours, ~10^5 CFU/ml
Description: L. monocytogenes F4244 in logarithmic growth phase was diluted to ~10^5 CFU/ml and incubated with 32 μM of the five PNAs (in triplicates) at 37 °C for 12 hours. Samples were collected every two hours, serially diluted, and plated onto TSA plates. Plates were then incubated wat 37 °C for 24 hours before viable CFUs were determined.
Samples were collected every 20 minutes and processed as above.

[7] = test system: L. monocytogenes F4244; experiment: Time kill assay; type: cell-based, Listeria monocytogenes; details: 8 μM PNA, 37 °C, samples every 20 minutes, inoculum 2.4 × 10^5 CFU/ml
[8] = concentration required to inhibit 50% of L. monocytogenes isolates (six isolates)
[9] = strain ATCC 13932, broth microdilution in low binding tubes, triplicates, 16 hour incubation
[10] = strain ATCC 19111, broth microdilution in low binding tubes, triplicates, 16 hour incubation
[11] = strain ATCC 19112, broth microdilution in low binding tubes, triplicates, 16 hour incubation
[12] = strain ATCC 19114, broth microdilution in low binding tubes, triplicates, 16 hour incubation
[13] = strain F4244, broth microdilution in low binding tubes, triplicates, 16 hour incubation, no turbidity
[14] = strain J0161, broth microdilution in low binding tubes, triplicates, 16 hour incubation

Row | Molecule | Log CFUs/worm ([1]; 16 µM) [Log CFUs/worm] | Log CFUs reduction ([1]; 16 µM) [Log CFUs] | Log CFUs/worm ([1]; 32 µM) [Log CFUs/worm] | Log CFUs reduction ([1]; 32 µM) [Log CFUs] | MIC50 [2, 8] [µM] | MIC [2, 9] [µM] | MIC [2, 10] [µM] | MIC [2, 11] [µM] | MIC [2, 12] [µM] | MIC [2, 13] [µM] | MIC [2, 14] [µM] | Log CFU/ml ([4]; 1 µM PNA) [Log CFU/ml] | Log CFU reduction ([4]; 1 µM PNA) [Log CFU] | Log CFU/ml ([4]; 2 µM PNA) [Log CFU/ml] | Log CFU reduction ([4]; 2 µM PNA) [Log CFU] | Log CFU/ml ([4]; 4 µM PNA) [Log CFU/ml] | Log CFU reduction ([4]; 4 µM PNA) [Log CFU] | Log CFU/ml ([4]; 8 µM PNA) | Log CFU reduction ([4]; 8 µM PNA) | Log CFU/ml ([4]; 16 µM PNA) | also measured
1 | CNC(C)C1CCC(N)C(OC2C(N)CC(N)C(OC3OCC(C)(O)C(NC)C3O)C2O)O1 (stereo not shown) [Gentamicin, gentamicin, reference compound] | 3.52±0.55 | 0.63 | 2.18±0.6 | 2.2 |  |  |  |  |  |  |  |  |  |  |  |  |  |  |  |  | 
2 | NCCCC[C@H](NC(=O)[C@H](Cc1ccccc1)NC(=O)[C@H](Cc1ccccc1)NC(=O)[C@H](CCCCN)NC(=O)[C@H](Cc1ccccc1)NC(=O)[C@H](Cc1ccccc1)NC(=O)[C@H](CCCCN)NC(=O)[C@H](Cc1ccccc1)NC(=O)[C@H](Cc1ccccc1)NC(=O)[C@@H](N)CCCCN)C(N)=O [KFF, reference compound] (H-KFFKFFKFFK-NH2) |  |  |  |  |  |  |  |  |  |  |  |  |  |  |  |  |  |  |  |  | MIC50 ([2]; clinical isolates of, 16 h): 64 µM (≈ 90.4 µg/mL)
3 | CC(=O)NC[C@H]1CN(c2ccc(N3CCOCC3)c(F)c2)C(=O)O1 [Linezolid, linezolid] |  |  |  |  |  |  |  |  |  |  |  |  |  |  |  |  |  |  |  |  | inhibition of mitochondrial protein synthesis (mitobiogenesis) [3]: 65%
4 | N=C(N)NCCC[C@H](NC(=O)CN)C(=O)N[C@@H](CCCCN)C(=O)N[C@@H](CCCCN)C(=O)N[C@@H](CCCCN)C(=O)N[C@@H](CCCNC(=N)N)C(=O)N[C@@H](CCCNC(=N)N)C(=O)N[C@@H](CCC(N)=O)C(=O)N[C@@H](CCCNC(=N)N)C(=O)N[C@@H](CCCNC(=N)N)C(=O)N[C@@H](CCCNC(=N)N)C(=O)N[C@@H](Cc1ccc(O)cc1)C(=O)N[C@@H](CCCCN)C(=O)O [TAT, reference compound] (H-GRKKKRRQRRRYK-OH) |  |  |  |  |  |  |  |  |  |  |  |  |  |  |  |  |  |  |  |  | MIC ([2]; clinical isolates of, 16 h): >128 µM; MIC50 ([2]; clinical isolates of, 16 h): >128 µM
5 | CC1(C)S[C@@H]2[C@H](NC(=O)[C@H](N)c3ccccc3)C(=O)N2[C@H]1C(=O)O [ampicillin] |  |  |  |  |  |  |  |  |  |  |  |  |  |  |  |  |  |  |  |  | inhibition of mitochondrial protein synthesis (mitobiogenesis) [3]: does not significantly inhibit mitobiogenesis
6 | KFFKFFKFFK-O-cgatcattcaaa-NH2 [PKFF, anti-rpoA PNA covalently conjugated to the (KFF)3K CPP] | 3.43±0.2 | 0.71 | 3.35±0.25 | 1.03 | 32 | 32 | 32 | 32 | 2 | 32 | 32 | 9.40±0.08 | -0.009 | 9.35±0.05 | 0.041 | 9.26±0.07 | 0.129 | 8.93±0.35 Log CFU/ml | 0.46 Log CFU | 8.40±0.16 Log CFU/ml | Log CFU reduction ([4]; 16 µM PNA): 0.98 Log CFU; Log CFU/ml ([4]; 32 µM PNA): 6.63±0.59 Log CFU/ml; Log CFU reduction ([4]; 32 µM PNA): 2.78 Log CFU; Log CFU/ml ([5]; 2 μM): 6.77 ± 0.03 Log CFU/ml; Log CFU reduction ([5]; 2 μM): −0.031 Log CFU; Log CFU/ml ([5]; 4 μM): 6.76 ± 0.08 Log CFU/ml; Log CFU reduction ([5]; 4 μM): −0.029 Log CFU; Log CFU/ml ([5]; 8 μM): 6.12 ± 0.32 Log CFU/ml; Log CFU reduction ([5]; 8 μM): 0.6 Log CFU; bactericidal or bacteriostatic activity [6]: bacteriostatic effect
7 | RFRRFRRFRRFRXB [(RFR)4XB, cell penetrating peptide (RFR)4XB, reference compound] |  |  |  |  | >128 | >128 | 32 | >128 | 128 | >128 | >128 |  |  |  |  |  |  |  |  |  | MIC ([2]; strain F4244, broth microdilution in low binding tubes, triplicates, 16 hour incubation, no turbidity, listed as RFR): no growth inhibition
8 | RFRRFRRFRRFRXB-O-cgatcattcaaa-NH2 [PRFR, anti-rpoA PNA covalently conjugated to the (RFR)4XB CPP] | 2.85±0.60 | 1.3 | 1.86±0.26 | 2.52 | 4 | 4 | 8 | 4 | 1 | 2 | 16 | 9.26±0.09 | 0.13 | 7.48±0.69 | 1.91 | 6.10±0.63 | 3.29 | bacterial clearance; also recorded: Cleared | 9.39 Log CFU | Cleared | time to complete elimination of starting inoculum [7]: ≤ 20 min; Log CFU reduction ([4]; 16 µM PNA): 9.39 Log CFU; Log CFU/ml ([4]; 32 µM PNA): Cleared; Log CFU reduction ([4]; 32 µM PNA): 9.39 Log CFU; Log CFU/ml ([5]; 2 μM): 5.89 ± 0.65 Log CFU/ml; Log CFU reduction ([5]; 2 μM): 0.84 Log CFU; Log CFU/ml ([5]; 4 μM): 5.10 ± 0.28 Log CFU/ml; Log CFU reduction ([5]; 4 μM): 1.63* Log CFU; Log CFU/ml ([5]; 8 μM): 4.29 ± 0.04 Log CFU/ml; Log CFU reduction ([5]; 8 μM): 2.43* Log CFU; time to complete eradication of Listeria [6]: ≤ 2 h; bactericidal or bacteriostatic activity [6]: bactericidal activity
9 | RQIKIWFQNRRMKWKK-O-cgatcattcaaa-NH2 [PANT, anti-rpoA PNA covalently conjugated to the antennapedia CPP] | 3.88±0.15 | 0.27 | 2.49±0.48 | 1.89 | 32 | 32 | 32 | 32 | 1 | 16 | 32 | 9.30±0.06 | 0.095 | 9.27±0.21 | 0.119 | 9.14±0.05 | 0.25 | 8.09±0.95 Log CFU/ml | 1.3 Log CFU and 1.30 Log CFU | 6.73±0.48 Log CFU/ml | Log CFU reduction ([4]; 16 µM PNA): 2.66 Log CFU; Log CFU/ml ([4]; 32 µM PNA): bacterial clearance; also recorded: Cleared; Log CFU reduction ([4]; 32 µM PNA): 9.39 Log CFU; Log CFU/ml ([5]; 2 μM): 6.82 ± 0.02 Log CFU/ml; Log CFU reduction ([5]; 2 μM): −0.09 Log CFU; Log CFU/ml ([5]; 4 μM): 6.67 ± 0.05 Log CFU/ml; Log CFU reduction ([5]; 4 μM): 0.06 Log CFU; Log CFU/ml ([5]; 8 μM): 4.65 ± 0.34 Log CFU/ml; Log CFU reduction ([5]; 8 μM): 2.07 Log CFU; time to complete eradication of Listeria [6]: 10 h; bactericidal or bacteriostatic activity [6]: bactericidal activity
10 | RXRRXRRXRRXRXB [(RXR)4XB, cell penetrating peptide (RXR)4XB, reference compound] |  |  |  |  | >128 | >128 | >128 | >128 | >128 | >128 | >128 |  |  |  |  |  |  |  |  |  | MIC ([2]; strain F4244, broth microdilution in low binding tubes, triplicates, 16 hour incubation, no turbidity, listed as RXR): no growth inhibition
